According to patent publication US11717508B2, “Compounds, compositions, and methods for inhibiting bacterial growth” (priority 2016, dated 2023):
Like-named read-outs stand apart in the source and are kept apart here.

What was measured:
[1] = tested on: DosR regulon genes (dosR, hspX and tgs1); experiment: NO and vitamin C sensitivity assays (RT-PCR); assay type: cell-based, Mycobacterium tuberculosis; conditions: for induction of dosR / induction of hspX / induction of tgs1: 2 h
[2] = tested on: CDC1551(hspX′:GFP) reporter; experiment: microbe, parasite or virus in culture; assay type: cell-based, Mycobacterium tuberculosis; conditions: Mycobacterium tuberculosis, 6 days of treatment
Mtb = experiment: microbe, parasite or virus in culture; assay type: cell-based; conditions: Mycobacterium tuberculosis; 6 days, optical density; unit given as M; read-out: growth inhibition EC50
Mtb Erdman [3] = conditions: 1 μM and 5 μM INH, ten days post INH treatment
Mtb Erdman [4] = experiment: microbe, parasite or virus in culture; conditions: Mycobacterium tuberculosis, 240 h, read-out: viability, INH alone
[5] = read-out: EC50 of inhibition of CDC1551(hspX′:GFP) reporter (dosR-dependent GFP) fluorescence

Compound: O=C1O[C@H]([C@@H](O)CO)C(O)=C1O [vitamin C, reference compound]
- induction of dosR ([1]; 2 mM vitamin C): 4 fold
- induction of hspX ([1]; 2 mM vitamin C): 14 fold
- induction of tgs1 ([1]; 2 mM vitamin C): 52 fold

Compound: C[C@H]1[C@@H](O)O[C@@H]2O[C@@]3(C)CC[C@H]4[C@H](C)CC[C@@H]1[C@@]24OO3 [DHA, dihydroartemisinin, reference compound]
- reduction of magnitude of induction of transcripts in response to DETA-NONOate vs DMSO treatment ([1]; 80 μM pretreatment 24 h): ~2 fold

Compound: CN(C)CCCN1C(=O)c2cccc3c(Br)ccc(c23)C1=O [HC104A, 6-bromo-2-[3-(dimethylamino)propyl]benzo[de]isoquinoline-1,3-dione]
- EC50 ([2]; unit given as M, read-out: EC50 of inhibition of dosR-dependent GFP fluorescence): 2.8 µM
- EC50 (Mtb): > 80 µM

Compound: NNC(=O)c1ccncc1 [INH, isoniazid, reference compound]
- viability, INH alone (Mtb Erdman [3]): ~100%
- viability at 25 µM (Mtb Erdman [4]): ~75%

Compound: [N]=O [NO, reference compound]
- induction of dosR ([1]; NO (50 μM DETA-NONOate)): 491 fold
- induction of hspX ([1]; NO (50 μM DETA-NONOate)): 373 fold
- induction of tgs1 ([1]; NO (50 μM DETA-NONOate)): 47 fold

Compound: O=C(Nc1ccno1)Nc1ccc(Cl)cc1Cl [HC106A, 1-(2,4-dichlorophenyl)-3-(1,2-oxazol-5-yl)urea]
- EC50 [2, 5]: 6.9 µM
- EC50 (Mtb): > 80 µM

Compound: CCCS(=O)(=O)N1CCN(Cc2ccc3c(c2)c2ccccc2n3CC)CC1 [HC105A, 9-ethyl-3-[(4-propylsulfonylpiperazin-1-yl)methyl]carbazole; oxalic acid]
- EC50 [2, 5]: 12.7 µM
- EC50 (Mtb): > 80 µM
